Results as given in patent US20230174946A1, “ORGAN INFECTION MODELS” (priority 2020, published 2023).
Like-named read-outs stand apart in the source and are kept apart here.

Tests used:
coxsackievirus = conditions: dose-dependent; previous study; cited from earlier work
SARS-CoV-2 [1] = format: cell-based; conditions: for effect on viral N gene RNA / viral replication in proximal ALI cultures (in words): pre-treatment, 10 µM Hydroxychloroquine or Remdesivir, 100 units/ml IFNB1
SARS-CoV-2 [2] = format: cell-based; conditions: 10 µM Hydroxychloroquine or Remdesivir, 100 units/ml IFNB1; for reduction in viral N gene RNA/expression compared to untreated infected organoids: human 3D alveolar organoids
SARS-CoV-2 [3] = format: cell-based; conditions: 10 µM Hydroxychloroquine or Remdesivir, 100 units/ml IFNB1

| SMILES | effect on coxsackievirus proliferation in vitro (coxsackievirus) | effect on viral N gene RNA / viral replication in proximal ALI cultures (in words) (SARS-CoV-2 [1]) | effect on viral N gene RNA / viral replication in proximal ALI cultures (in words) (SARS-CoV-2 [1]; listed as hydroxychloroquine) | reduction in viral N gene RNA/expression compared to untreated infected organoids (SARS-CoV-2 [2]) | effect on viral replication in alveolar organoid cultures (in words) (SARS-CoV-2 [2]; pre-treatment) | reduction in viral N gene RNA/expression compared to untreated infected AT2 cultures (SARS-CoV-2 [3]) | effect on viral infection/replication in AT2 cultures (in words) (SARS-CoV-2 [3]; pre-treatment) | reduction in viral N gene RNA abundance (SARS-CoV-2 [1]) |
| --- | --- | --- | --- | --- | --- | --- | --- | --- |
| NC(=O)c1ncn([C@@H]2O[C@H](CO)[C@@H](O)[C@H]2O)n1 [ribavirin] | significantly reduce coxsackievirus proliferation |  |  |  |  |  |  |  |
| CCN(CCO)CCCC(C)Nc1ccnc2cc(Cl)ccc12 (stereo not shown) [Hydroxychloroquine] |  | did not show a significant effect | did not have an effect on viral replication | 2.4 log | significantly reduced viral replication | 2.4 log | significantly reduced viral replication |  |
| CCC(CC)COC(=O)[C@H](C)N[P@](=O)(OC[C@H]1O[C@@](C#N)(c2ccc3c(N)ncnn23)[C@H](O)[C@@H]1O)Oc1ccccc1 [Remdesivir] |  |  |  | 9 log |  | 9 log |  | 10.2 log |
